Drawing on US12319684B2 (Sanford Burnham Prebys Medical Discovery Institute, priority 2014, dated 2025), this text covers EC50 and Emax for 22 molecules.

Each structure is given as a SMILES string. Read-outs that look alike come from different tables or passages of the source.

Broadly, the EC50 is the concentration at which the effect is half-maximal.

The assay addresses T1, human apelin receptor (APJ, AGTRL-1, APLNR) (Homo sapiens, UniProt P35414).
T1 construct: host or cells: Chinese hamster ovary cells
T1 sequence (P35414 1-380): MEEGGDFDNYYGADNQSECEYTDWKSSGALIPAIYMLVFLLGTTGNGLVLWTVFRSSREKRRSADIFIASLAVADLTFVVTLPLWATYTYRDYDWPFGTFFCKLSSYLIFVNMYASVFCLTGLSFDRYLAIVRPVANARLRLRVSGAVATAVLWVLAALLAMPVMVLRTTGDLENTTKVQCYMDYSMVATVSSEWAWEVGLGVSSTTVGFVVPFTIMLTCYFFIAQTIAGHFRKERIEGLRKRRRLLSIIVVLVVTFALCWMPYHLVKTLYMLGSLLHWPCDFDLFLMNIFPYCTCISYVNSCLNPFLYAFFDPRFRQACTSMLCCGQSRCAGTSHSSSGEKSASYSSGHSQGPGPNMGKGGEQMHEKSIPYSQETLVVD
As to the kind of experiment: APJ cAMP cell-based assay (forskolin-stimulated CHO cells, enzyme fragment complementation). Particulars: for Emax: CHO, 0.5 h, read-out: APJ cAMP % resp (efficacy). The procedure:
The assays disclosed herein were performed using cell lines from DiscoveRx, Inc.
Biological activity was determined in a cell-based assay. This assay detects activation of the receptor by reporting on intracellular cyclic adenosine monophosphate (cAMP) level. Chinese hamster ovary cells engineered to express a stably integrated human apelin receptor (APJ, AGTRL-1, APLNR), were plated into the wells of a microtiter plate. Cells were stimulated with forskolin to increase intracellular cAMP. Immediately following, compounds were added at a range of final concentrations 0.0-100 μM, in DMSO (not to exceed a final DMSO concentration of >1% v/v), and allowed to incubate with the cells for 0.5 h. At the end of the incubation, cells were lysed to stop APJ signaling, and cAMP was quantified using a commercially available assay kit that applies enzyme fragment complementation technology and bioluminescence, in a competitive ELISA format.
Compound efficacy (% resp) is reported as a percentage of the maximal apelin-13 response at 1 nM (control).

Setting [1] is: CHO cells expressing human APJ, forskolin-stimulated, 0.5 h incubation, 50% of control (apelin-13, 1 nM) response, read-out: APJ cAMP EC50.
[2] abbreviates: percentage of the maximal apelin-13 response at 1 nM (control).

For `Cc1ccc2nc(CSc3nnc(-c4cccs4)n3-c3ccccc3OC(F)(F)F)cc(=O)n2c1` [Example 27, 7-Methyl-2-[5-thiophen-2-yl-4-(2-trifluoromethoxy-phenyl)-4H-[1,2,4]triazol-3-ylsulfanylmethyl]-pyrido[1,2-a]pyrimidin-4-one], the concentration giving a half-maximal response (EC50) under setting [1] worked out at 0.0174 µM. The Emax under setting [2] was found to be 82%.

Regarding `Cc1ccc2nc(CSc3nnc(-c4cccs4)n3-c3ccc(Cl)cc3)cc(=O)n2c1` [Example 26, 2-[4-(4-Chloro-phenyl)-5-thiophen-2-yl-4H-[1,2,4]triazol-3-ylsulfanylmethyl]-7-methyl-pyrido[1,2-a]pyrimidin-4-one], the EC50 under setting [1] was more than 10 µM. Moreover, the Emax under setting [2] amounted to 86%.

As for `COc1ccccc1-n1c(SCc2cc(=O)n3cc(F)ccc3n2)nnc1-c1cccs1` [Example 49, 7-Fluoro-2-[4-(2-methoxy-phenyl)-5-thiophen-2-yl-4H-[1,2,4]triazol-3-ylsulfanylmethyl]-pyrido[1,2-a]pyrimidin-4-one], the EC50 under setting [1] stood at 0.0234 µM. Further, under setting [2], the Emax turned out to be 107%.

Turning to `COc1ccccc1-n1c(SCc2cc(=O)n3cc(C)ccc3n2)nnc1-c1cccn1C` [Example 18, 2-[4-(2-Methoxy-phenyl)-5-(1-methyl-1H-pyrrol-2-yl)-4H-[1,2,4]triazol-3-ylsulfanylmethyl]-7-methyl-pyrido[1,2-a]pyrimidin-4-one], the concentration giving a half-maximal response (EC50) under setting [1] came to 1.7 µM. Besides, under setting [2], the Emax is 58%.

As for `COc1ccccc1-n1c(SCc2cc(=O)n3cc(C)ccc3n2)nnc1-c1ccc(C)cc1` [Example 5, 2-[4-(2-Methoxy-phenyl)-5-p-tolyl-4H-[1,2,4]triazol-3-ylsulfanylmethyl]-7-methyl-pyrido[1,2-a]pyrimidin-4-one], the half-maximal effective concentration (EC50) under setting [1] came out at 1.51 µM. For the same molecule, under setting [2], the Emax came out at 126%.

Consider `COc1ccccc1-n1c(SCc2nc(=O)c3cc(OC(F)(F)F)ccc3[nH]2)nnc1-c1cccs1` [Example 69, 2-[4-(2-Methoxy-phenyl)-5-thiophen-2-yl-4H-[1,2,4]triazol-3-ylsulfanylmethyl]-6-trifluoromethoxy-1H-quinazolin-4-one], for which the Emax stood at 59%. The EC50 under setting [1] is 1.37 µM.

As for `COc1ccccc1-n1c(SCc2nc3cc(C)ccc3c(=O)[nH]2)nnc1-c1cccs1` [Example 53, 2-(((4-(2-methoxyphenyl)-5-(thiophen-2-yl)-4H-1,2,4-triazol-3-yl)thio)methyl)-7-methylquinazolin-4(3H)-one], under setting [1], the 50% effective concentration (EC50) was 1.03 µM. In addition, the Emax under setting [2] turned out to be 59%.

Take `COc1ccccc1-n1c(SCc2cccc(F)c2)nnc1-c1cccs1` [Example 73, 3-(3-Fluoro-benzylsulfanyl)-4-(2-methoxy-phenyl)-5-thiophen-2-yl-4H-[1,2,4]triazole]: the EC50 under setting [1] came to 10.2 µM. Further, the Emax under setting [2] turned out to be 166%.

For the molecule `COc1ccccc1-n1c(SCc2nc(=O)c3cc(F)ccc3[nH]2)nnc1-c1cccs1` [Example 55, 6-Fluoro-2-[4-(2-methoxy-phenyl)-5-thiophen-2-yl-4H-[1,2,4]triazol-3-ylsulfanylmethyl]-1H-quinazolin-4-one], the half-maximal effective concentration (EC50) under setting [1] came out at 0.009 µM. For the same molecule, the Emax under setting [2] worked out at 109%.

As for `COc1ccccc1-n1c(SCc2coc(-c3ccc(F)cc3)n2)nnc1-c1cccs1` [Example 39, 3-[2-(4-Fluoro-phenyl)-oxazol-4-ylmethylsulfanyl]-4-(2-methoxy-phenyl)-5-thiophen-2-yl-4H-[1,2,4]triazole], under setting [1], the EC50 came out at 0.105 µM. Also, under setting [2], the Emax was 93%.

As for `COc1cccc(-n2c(SCc3cc(=O)n4cc(C)ccc4n3)nnc2-c2cccs2)c1` [Example 22, 2-[4-(3-Methoxy-phenyl)-5-thiophen-2-yl-4H-[1,2,4]triazol-3-ylsulfanylmethyl]-7-methyl-pyrido[1,2-a]pyrimidin-4-one], the EC50 under setting [1] was 1.24 µM. For the same molecule, the Emax under setting [2] came to 134%.

With `Cc1ccc2nc(CSc3nnc(-c4cccs4)n3-c3ccccc3F)cc(=O)n2c1` [Example 24, 2-[4-(2-Fluoro-phenyl)-5-thiophen-2-yl-4H-[1,2,4]triazol-3-ylsulfanylmethyl]-7-methyl-pyrido[1,2-a]pyrimidin-4-one], the concentration for a half-maximal effect (EC50) under setting [1] is more than 10 µM.

For the molecule `Cc1ccc2nc(CSc3nnc(-c4cccs4)n3-c3ccccc3Cl)cc(=O)n2c1` [Example 29, 2-[4-(2-Chloro-phenyl)-5-thiophen-2-yl-4H-[1,2,4]triazol-3-ylsulfanylmethyl]-7-methyl-pyrido[1,2-a]pyrimidin-4-one], the EC50 under setting [1] came out at 0.252 µM. The Emax under setting [2] stood at 62%.

For `COc1ccc2[nH]c(CSc3nnc(-c4cccs4)n3-c3ccccc3OC)nc(=O)c2c1` [Example 65, 6-Methoxy-2-[4-(2-methoxy-phenyl)-5-thiophen-2-yl-4H-[1,2,4]triazol-3-ylsulfanylmethyl]-1H-quinazolin-4-one], under setting [1], the 50% effective concentration (EC50) was 0.304 µM. Under setting [2], the Emax was 101%.

Consider `COc1ccccc1-n1c(SCc2nc(=O)c3ccccc3[nH]2)nnc1-c1cccs1` [Example 52, 2-[4-(2-Methoxy-phenyl)-5-thiophen-2-yl-4H-[1,2,4]triazol-3-ylsulfanylmethyl]-1H-quinazolin-4-one], for which the EC50 is 0.24 µM and the Emax was determined as 113%.

Turning to `COc1ccccc1-n1c(-c2cccs2)cnc1OCc1csc(-c2ccccc2)n1` [Example 80], the EC50 under setting [1] is more than 10 µM. Further, the Emax under setting [2] was 31%.

Consider `COc1ccccc1-n1c(NCc2coc(-c3ccc(C)cc3)n2)nnc1-c1cccs1` [Example 87, [4-(2-Methoxy-phenyl)-5-thiophen-2-yl-4H-[1,2,4]triazol-3-yl]-(2-p-tolyl-oxazol-4-ylmethyl)-amine], for which the EC50 under setting [1] was more than 10 µM.

As to `COc1ccccc1-n1c(SCc2ccccc2F)nnc1-c1cccs1` [Example 74, 3-(2-Fluoro-benzylsulfanyl)-4-(2-methoxy-phenyl)-5-thiophen-2-yl-4H-[1,2,4]triazole], the concentration giving a half-maximal response (EC50) under setting [1] turned out to be 15 µM. Moreover, the Emax under setting [2] was 80%.

Take `COc1ccccc1-n1c(OCc2ccccc2)nnc1-c1cccs1` [Example 82, 3-(benzyloxy)-4-(2-methoxyphenyl)-5-(thiophen-2-yl)-4H-1,2,4-triazole]: the 50% effective concentration (EC50) under setting [1] was more than 10 µM. Moreover, the Emax under setting [2] was found to be 52%.

As to `COc1ccccc1-n1c(SCc2cc(=O)n3cc(C)ccc3n2)nnc1-c1ccc(Br)s1` [Example 8, 2-[5-(5-Bromo-thiophen-2-yl)-4-(2-methoxy-phenyl)-4H-[1,2,4]triazol-3-ylsulfanylmethyl]-7-methyl-pyrido[1,2-a]pyrimidin-4-one], under setting [1], the EC50 stood at 0.551 µM. Also, the Emax under setting [2] is 137%.

With `COc1ccccc1-n1c(SCc2nc(=O)c3c(F)cccc3[nH]2)nnc1-c1cccs1` [Example 56, 5-Fluoro-2-[4-(2-methoxy-phenyl)-5-thiophen-2-yl-4H-[1,2,4]triazol-3-ylsulfanylmethyl]-1H-quinazolin-4-one], under setting [1], the EC50 worked out at 8.62 µM. Moreover, under setting [2], the Emax stood at 107%.

On to `COc1ccccc1-n1c(SCc2cc(=O)n3cc(C)ccc3n2)nnc1-c1ccc(N(C)C)cc1` [Example 6, 2-[5-(4-Dimethylamino-phenyl)-4-(2-methoxy-phenyl)-4H-[1,2,4]triazol-3-ylsulfanylmethyl]-7-methyl-pyrido[1,2-a]pyrimidin-4-one], for which, under setting [1], the half-maximal effective concentration (EC50) is 13.6 µM. In addition, under setting [2], the Emax was 176%.
